Test results from PubChem BioAssay (NCI).
Where “and” joins values, the source holds several entries; their conditions need not be identical. Identical values can stand only once.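 Cells were grown in 96-well plates and exposed to each compound for 48 hours at five concentrations; endpoints were interpolated linearly between bracketing concentrations, or set to the highest concentration if not reached. GI50 marks 50% less growth. TGI marks complete inhibition of growth.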

Key:
Assay in all cases: inhibition of tumour cell growth, NCI panel, 48 h
MDA-MB-468 breast = system: MDA-MB-468 breast
IGROV1 ovarian = system: IGROV1 ovarian
MDA-MB-435 = system: MDA-MB-435
OVCAR-8 ovarian = system: OVCAR-8 ovarian
LOX IMVI melanoma = system: LOX IMVI melanoma
OVCAR-5 ovarian = system: OVCAR-5 ovarian
CCRF-CEM leukemia = system: CCRF-CEM leukemia
UACC-257 melanoma = system: UACC-257 melanoma
DU-145 prostate = system: DU-145 prostate
MALME-3M melanoma = system: MALME-3M melanoma
RPMI-8226 leukemia = system: RPMI-8226 leukemia
OVCAR-3 ovarian = system: OVCAR-3 ovarian
A498 renal = system: A498 renal
U251 CNS = system: U251 CNS
SF-539 CNS = system: SF-539 CNS
SF-295 CNS = system: SF-295 CNS
KM12 colon = system: KM12 colon
EKVX NSCLC = system: EKVX NSCLC
MCF7 breast = system: MCF7 breast
SN12C renal = system: SN12C renal
K-562 leukemia = system: K-562 leukemia
HCT-116 colon = system: HCT-116 colon
SR leukemia = system: SR leukemia
CAKI-1 renal = system: CAKI-1 renal
786-0 renal = system: 786-0 renal
OVCAR-4 ovarian = system: OVCAR-4 ovarian
HOP-92 NSCLC = system: HOP-92 NSCLC
A549 NSCLC = system: A549 NSCLC
NCI-H23 lung = system: NCI-H23 lung
SK-MEL-28 melanoma = system: SK-MEL-28 melanoma
BT-549 breast = system: BT-549 breast
ACHN renal = system: ACHN renal
SK-OV-3 ovarian = system: SK-OV-3 ovarian
SNB-75 CNS = system: SNB-75 CNS
HL-60(TB) leukemia = system: HL-60(TB) leukemia
COLO 205 colon = system: COLO 205 colon
MOLT-4 leukemia = system: MOLT-4 leukemia
SK-MEL-5 melanoma = system: SK-MEL-5 melanoma
SK-MEL-2 melanoma = system: SK-MEL-2 melanoma
T-47D breast = system: T-47D breast
MDA-MB-231 breast = system: MDA-MB-231 breast
NCI-H226 lung = system: NCI-H226 lung
HCT-15 colon = system: HCT-15 colon
SW-620 colon = system: SW-620 colon
SF-268 CNS = system: SF-268 CNS
HOP-62 NSCLC = system: HOP-62 NSCLC
NCI/ADR-RES ovarian = system: NCI/ADR-RES ovarian
PC-3 prostate = system: PC-3 prostate
UO-31 renal = system: UO-31 renal
NCI-H460 lung = system: NCI-H460 lung
TK-10 renal = system: TK-10 renal
M14 melanoma = system: M14 melanoma
NCI-H522 lung = system: NCI-H522 lung
HCC-2998 colon = system: HCC-2998 colon
UACC-62 melanoma = system: UACC-62 melanoma
HT29 colon = system: HT29 colon
HS 578T breast = system: HS 578T breast
SNB-19 CNS = system: SNB-19 CNS

## Cc1cccc(CNc2c3ccccc3nc3ccccc23)c1
MDA-MB-468 breast
  GI50: 1.58 µM
  TGI: 3.63 µM

## O=C(CSSCC(=O)c1ccc(Cl)cc1)c1ccc(Cl)cc1
MDA-MB-468 breast
  GI50: 2.26 µM
  TGI: 5.98 µM

## CC(=O)CC[N+](C)(C)C
MDA-MB-468 breast
  GI50: 1.75 µM
  TGI: 4.39 µM

## O=C1c2c(c3c4cc(F)ccc4oc3c3[nH]c4ccccc4c23)C(=O)N1O
MDA-MB-468 breast
  GI50: 2.14 µM
  TGI: 7.93 µM

## COc1ccc(-c2nc(NC(=O)CS(=O)(=O)c3ccc(F)cc3)sc2C)cc1
MDA-MB-468 breast
  GI50: 7.05 µM
  TGI: 53.8 µM

## O=C(O)CCCN1C(=O)/C(=C/C(Cl)=C/c2ccccc2)SC1=S
MDA-MB-468 breast
  GI50: 1.18 µM
  TGI: 3.29 µM

## COc1ccc(CCN2CCCn3c2nc2ccccc2c3=O)cc1
MDA-MB-468 breast
  GI50: 0.0392 µM
  TGI: 43.9 µM

## O=C(CCN1CCCC1)Nc1ccc2c(Nc3ccc(F)cc3)c3ccccc3nc2c1
MDA-MB-468 breast
  GI50: 1.26 µM
  TGI: 2.8 µM

## CCc1nc(N)nc(N)c1C#CC(C)c1ccc(-c2ccncc2)cc1Cl (stereo unspecified)
MDA-MB-468 breast
  TGI: 1.57 µM and 6.46 µM

## CCN1C(=O)N(CC)C2C1NN=c1s/c(=C3\C(=O)Nc4ccccc43)c(=O)n12 (stereo unspecified)
MDA-MB-468 breast
  GI50: 0.297 µM
  TGI: 2.82 µM

## CN[C@@H](C)C(=O)N[C@H](C(=O)N1CCC[C@H]1c1nc(C(=O)c2ccc(F)cc2)cs1)C1CCCCC1
MDA-MB-468 breast
  GI50: 0.591 µM
  TGI: 20.3 µM

## O=[N+]([O-])c1ccccc1/C=N\NC(=S)N/N=C/c1ccccc1[N+](=O)[O-]
MDA-MB-468 breast
  GI50: 1.4 µM
  TGI: 21.3 µM

## COC(=O)CNC(=O)C(=O)c1c(O)c(O)c(C(C)C)c2cc(C)c(-c3c(C)cc4c(C(C)C)c(O)c(O)c(C(=O)C(=O)NCC(=O)OC)c4c3O)c(O)c12
MDA-MB-468 breast
  GI50: 1.46 µM
  TGI: 4.8 µM

## COCCOCCOCCOc1ccc(-n2cc(CCCN(CCNc3ccnc4cc(Cl)ccc34)C(=O)CCC(=O)O[C@@H]3O[C@@H]4OC5(C)CC[C@H]6[C@H](C)CC[C@@H]([C@H]3C)[C@@]46OO5)nn2)cc1
IGROV1 ovarian
  GI50: 4.54 µM
  TGI: > 10.3 µM
MDA-MB-435
  GI50: 1.25 µM
  TGI: > 10.3 µM
OVCAR-8 ovarian
  GI50: 1.83 µM
  TGI: > 10.3 µM
LOX IMVI melanoma
  GI50: 0.731 µM
  TGI: > 10.3 µM
OVCAR-5 ovarian
  GI50: 1.7 µM
  TGI: > 10.3 µM
CCRF-CEM leukemia
  GI50: 1.07 µM
  TGI: > 10.3 µM
UACC-257 melanoma
  GI50: 1.86 µM
  TGI: > 10.3 µM
DU-145 prostate
  GI50: > 10.3 µM
  TGI: > 10.3 µM
MALME-3M melanoma
  GI50: 1.73 µM
  TGI: 4.2 µM
RPMI-8226 leukemia
  GI50: 0.386 µM
  TGI: > 10.3 µM
OVCAR-3 ovarian
  GI50: 0.883 µM
  TGI: > 10.3 µM
A498 renal
  GI50: > 10.3 µM
  TGI: > 10.3 µM
U251 CNS
  GI50: 4.31 µM
  TGI: > 10.3 µM
SF-539 CNS
  GI50: 4.97 µM
  TGI: > 10.3 µM
SF-295 CNS
  GI50: 3.63 µM
  TGI: > 10.3 µM
KM12 colon
  GI50: 0.792 µM
  TGI: > 10.3 µM
EKVX NSCLC
  GI50: 1.67 µM
  TGI: > 10.3 µM
MCF7 breast
  GI50: 1.04 µM
  TGI: > 10.3 µM
SN12C renal
  GI50: 4.77 µM
  TGI: > 10.3 µM
K-562 leukemia
  GI50: 0.434 µM
  TGI: > 10.3 µM
HCT-116 colon
  GI50: 0.434 µM
  TGI: > 10.3 µM
SR leukemia
  GI50: 0.375 µM
  TGI: 3.34 µM
CAKI-1 renal
  GI50: > 10.3 µM
  TGI: > 10.3 µM
786-0 renal
  GI50: 5.54 µM
  TGI: > 10.3 µM
OVCAR-4 ovarian
  GI50: 2 µM
  TGI: > 10.3 µM
HOP-92 NSCLC
  GI50: 1.09 µM
  TGI: 8.11 µM
A549 NSCLC
  GI50: 6.09 µM
  TGI: > 10.3 µM
NCI-H23 lung
  GI50: 1.77 µM
  TGI: > 10.3 µM
SK-MEL-28 melanoma
  GI50: 4.01 µM
  TGI: > 10.3 µM
BT-549 breast
  GI50: 0.771 µM
  TGI: 6.85 µM
ACHN renal
  GI50: 3.97 µM
  TGI: > 10.3 µM
SK-OV-3 ovarian
  GI50: > 10.3 µM
  TGI: > 10.3 µM
SNB-75 CNS
  GI50: > 10.3 µM
  TGI: > 10.3 µM
HL-60(TB) leukemia
  GI50: 0.353 µM
  TGI: 2.37 µM
COLO 205 colon
  GI50: 1.12 µM
  TGI: > 10.3 µM
MOLT-4 leukemia
  GI50: 0.408 µM
  TGI: > 10.3 µM
SK-MEL-5 melanoma
  GI50: 1.18 µM
  TGI: 8.81 µM
MDA-MB-468 breast
  GI50: 1.01 µM
  TGI: > 10.3 µM
SK-MEL-2 melanoma
  GI50: 5.76 µM
  TGI: > 10.3 µM
T-47D breast
  GI50: 0.42 µM
  TGI: > 10.3 µM
MDA-MB-231 breast
  GI50: > 10.3 µM
  TGI: > 10.3 µM
NCI-H226 lung
  GI50: 3.18 µM
  TGI: > 10.3 µM
HCT-15 colon
  GI50: 0.388 µM
  TGI: > 10.3 µM
SW-620 colon
  GI50: 0.654 µM
  TGI: > 10.3 µM
SF-268 CNS
  GI50: 7.69 µM
  TGI: > 10.3 µM
HOP-62 NSCLC
  GI50: > 10.3 µM
  TGI: > 10.3 µM
NCI/ADR-RES ovarian
  GI50: 2.45 µM
  TGI: > 10.3 µM
PC-3 prostate
  GI50: 0.301 µM
  TGI: > 10.3 µM
UO-31 renal
  GI50: 1.37 µM
  TGI: > 10.3 µM
NCI-H460 lung
  GI50: 10.1 µM
  TGI: > 10.3 µM
TK-10 renal
  GI50: > 10.3 µM
  TGI: > 10.3 µM
M14 melanoma
  GI50: 3.19 µM
  TGI: > 10.3 µM
NCI-H522 lung
  GI50: 0.754 µM
  TGI: > 10.3 µM
HCC-2998 colon
  GI50: 7.16 µM
  TGI: > 10.3 µM
UACC-62 melanoma
  GI50: 1.18 µM
  TGI: > 10.3 µM
HT29 colon
  GI50: 1.23 µM
  TGI: > 10.3 µM
HS 578T breast
  GI50: 2.54 µM
  TGI: > 10.3 µM
SNB-19 CNS
  GI50: > 10.3 µM
  TGI: > 10.3 µM
